In US12150934B2 (Bantam Pharmaceutical, LLC, priority 2016, dated 2024):

Tested on: BJAB cells
Test: BJAB cell proliferation (Cell Titer Glo)
Type: cell-based
Conditions: Homo sapiens, approximately 72 hours
Description: Cells were seeded in white Corning Costar 96-well assay plates at 2500 cells/well in 50 μL of medium. Serial dilutions of test compounds were made in cell culture medium/FBS+0.2% DMSO, and transferred to assay plates in a volume of 50 μL (DMSO at 0.1% final). Plates were maintained at 37° C. for approximately 72 hours. The effect of compounds on cell proliferation was evaluated using the Cell Titer Glo reagent (Promega), according to the manufacturer's instructions. Briefly, 100 μL of reagent was added per well, and after a 10 minute incubation luminescence values were determined on a plate reader (Tecan F200PRO). The percent of luminescence signal relative to untreated controls was calculated for each compound concentration, and EC50 values were determined from dose response data by non-linear regression analysis using Prism (GraphPad). The mTor inhibitor Torin1 (Liu, et al. (2010) J. Med. Chem. 53, 7146) was used as a control. The data are summarized in the compound table provided above.

Structure (SMILES) | EC50
Cc1nn(C)cc1-c1c(C)nn(-c2nc(-c3ccc(Cl)c(Cl)c3)c(SC(C)C)s2)c1C(=O)O [Compound 22, 2-(4-(3,4-dichlorophenyl)-5-(isopropylthio)thiazol-2-yl)-2′,5,5′-trimethyl-4,4′-bi(2H-pyrazole)-3-carboxylic acid] | 10 to 25 µM
CCC(C)Sc1sc(-n2nc(C)c(-c3cc(C)nc(C)c3)c2C(=O)O)nc1-c1ccc(Cl)c(Cl)c1 (centres unmarked) [Compound 33b] | < 1 µM
CSc1sc(-n2nc(C)c(Cc3ccccc3[N+](=O)[O-])c2C(=O)O)nc1-c1ccc(Cl)c(Cl)c1 [Compound 45, 1-(4-(3,4-dichlorophenyl)-5-(methylthio)thiazol-2-yl)-3-methyl-4-(2-nitrobenzyl)-1H-pyrazole-5-carboxylic acid] | 25 to 50 µM
Cc1nn(-c2nc(-c3cc(Cl)cc(Cl)c3)c(SC(C)C)s2)c(C(=O)O)c1-c1cc(Cl)cc(Cl)c1 [Compound 150, 4-(3,5-dichlorophenyl)-1-(4-(3,5-dichlorophenyl)-5-(isopropylthio)thiazol-2-yl)-3-methyl-1H-pyrazole-5-carboxylic acid] | 1 to 5 µM
COCCOc1cc(Cl)cc(-c2c(C)nn(-c3nc(-c4ccc(Cl)c(Cl)c4)c(SC(C)C)s3)c2C(=O)O)c1 [Compound 175, 4-(3-chloro-5-(2-methoxyethoxy)phenyl)-1-(4-(3,4-dichlorophenyl)-5-(isopropylthio)thiazol-2-yl)-3-methyl-1H-pyrazole-5-carboxylic acid] | 1 to 5 µM
Cc1nn(-c2nc(-c3cccc(F)c3)c(SC(C)C)s2)c(C(=O)O)c1-c1cccc(F)c1 [Compound 201a] | 25 to 50 µM
Cc1nn(-c2nc(-c3cc4ccccc4o3)c(SC(C)C)s2)c(C(=O)O)c1-c1cccc(F)c1 [Compound 201b] | 10 to 25 µM
Cc1nn(-c2nc(-c3cncc(C#N)c3)c(SC(C)C)s2)c(C(=O)O)c1-c1cccc(F)c1 [Compound 210, 1-(4-(5-cyanopyridin-3-yl)-5-(isopropylthio)thiazol-2-yl)-4-(3-fluorophenyl)-3-methyl-1H-pyrazole-5-carboxylic acid] | > 40 µM
Cc1nn(-c2nc(-c3ccc(C#N)cc3)c(SC(C)C)s2)c(C(=O)O)c1-c1cccc(F)c1 [Compound 213, 1-(4-(4-cyanophenyl)-5-(isopropylthio)thiazol-2-yl)-4-(3-fluorophenyl)-3-methyl-1H-pyrazole-5-carboxylic acid] | 5 to 10 µM
Cc1nn(-c2nc(-c3ccc(Cl)c(Cl)c3)c(F)s2)c(C(=O)O)c1-c1cccc(F)c1 [Compound 227, 1-(4-(3,4-dichlorophenyl)-5-fluorothiazol-2-yl)-4-(3-fluorophenyl)-3-methyl-1H-pyrazole-5-carboxylic acid] | 10 to 25 µM
CCNC(=O)c1cc(-c2nc(-n3nc(C)c(-c4cccc(F)c4)c3C(=O)O)sc2SC(C)C)ccc1Cl [Compound 243, 1-(4-(4-chloro-3-(ethylcarbamoyl)phenyl)-5-(isopropylthio)thiazol-2-yl)-4-(3-fluorophenyl)-3-methyl-1H-pyrazole-5-carboxylic acid] | > 40 µM

Same assay, conditions: approximately 72 hours

Structure (SMILES) | EC50 (BJAB cell proliferation)
Cc1nn(-c2nc(-c3ccc(Cl)c(Cl)c3)c(SC(C)C)s2)c(C(=O)O)c1-c1cccc(F)c1 [Compound 151, 1-(4-(3,4-dichlorophenyl)-5-(isopropylthio)thiazol-2-yl)-4-(3-fluorophenyl)-3-methyl-1H-pyrazole-5-carboxylic acid] | A,B

Tested on: HCT116 cells
Test: Effect on glutathione levels with menadione and N-acetyl cysteine
Type: cell-based
Conditions: FIG. 3
Description: Effect on Glutathione levels: BJAB and HCT116 cells were maintained in RPMI medium (Wisent) or McCoy's medium (Wisent), respectively. 5000 cells/well were transferred to clear-bottom 96-well assay plates (Thermo Fisher) in a volume of 50 μL. Plates were incubated overnight at 37° C. in 5% CO2, in an unsealed plastic bag with damp paper. Menadione (Sigma) was dissolved in DMSO and diluted in 10% heat inactivated FBS plus culture medium to 20 μM and 5 μM (0.2% DMSO for each). Culture medium was gently aspirated from cells and replaced by 50 μl diluted menadione or 0.2% DMSO for controls. Test compound was diluted to 80 μM (0.2% DMSO) in 10% heat inactivated FBS plus culture medium then diluted further to 5 μM, 1 μM, 0.5 μM and 0.05 μM (in 0.2% DMSO). 50 μL test compound solution was added to each well, with or without menadione. One μL of an N-acetyl cysteine (Sigma) solution at 100 mM in water was added where indicated. Assay plates were incubated for the times indicated at 37° C. 5% CO2 in opened plastic bag with damp paper. Total glutathione levels were determined according to the procedure described above.

Structure (SMILES) | Glutathione levels in HCT116 cells after treatment
CC1=CC(=O)c2ccccc2C1=O [menadione] | reduction

Same assay, conditions: presence or absence of N-acetyl cysteine, FIG. 3

Structure (SMILES) | Effect of N-acetyl cysteine on the reduction of glutathione
CC1=CC(=O)c2ccccc2C1=O [menadione] | prevents the reduction
